Reference: patent US10988477B2 (Merck Patent GmbH, priority 2018, dated 2021)

What was measured:
GCN2 kinase = GCN2 kinase (Homo sapiens, UniProt Q9P2K8); experiment: GCN2 enzyme inhibition assay (Transcreener ADP2 fluorescence polarization); format: biochemical; conditions: compounds of Formula II; 280 μM ATP, 4 nM GCN2 kinase
Outline: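 Kinase activity is followed as ADP formation, measured by fluorescence polarization, using 4 nM enzyme with 280 μM ATP and 200 μM (RS)7 peptide at pH 7.5 and 25 °C for 1 h. Values come from a non-linear tight-binding fit.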

[1] = molecular target: intracellular GCN2 (phosphorylation of the GCN2 substrate eIF2α) (Homo sapiens, UniProt Q9P2K8); experiment: GCN2 cellular inhibition assay (AlphaScreen SureFire P-eIF2α Ser51, borrelidin-treated U2OS cells); format: cell-based; conditions: compounds of Formula II; biomarker assay, phosphorylated eIF2α Ser51 in borrelidin-treated U2OS cells
Sequence of intracellular GCN2 (phosphorylation of the GCN2 substrate eIF2α) (Q9P2K8 whole entry): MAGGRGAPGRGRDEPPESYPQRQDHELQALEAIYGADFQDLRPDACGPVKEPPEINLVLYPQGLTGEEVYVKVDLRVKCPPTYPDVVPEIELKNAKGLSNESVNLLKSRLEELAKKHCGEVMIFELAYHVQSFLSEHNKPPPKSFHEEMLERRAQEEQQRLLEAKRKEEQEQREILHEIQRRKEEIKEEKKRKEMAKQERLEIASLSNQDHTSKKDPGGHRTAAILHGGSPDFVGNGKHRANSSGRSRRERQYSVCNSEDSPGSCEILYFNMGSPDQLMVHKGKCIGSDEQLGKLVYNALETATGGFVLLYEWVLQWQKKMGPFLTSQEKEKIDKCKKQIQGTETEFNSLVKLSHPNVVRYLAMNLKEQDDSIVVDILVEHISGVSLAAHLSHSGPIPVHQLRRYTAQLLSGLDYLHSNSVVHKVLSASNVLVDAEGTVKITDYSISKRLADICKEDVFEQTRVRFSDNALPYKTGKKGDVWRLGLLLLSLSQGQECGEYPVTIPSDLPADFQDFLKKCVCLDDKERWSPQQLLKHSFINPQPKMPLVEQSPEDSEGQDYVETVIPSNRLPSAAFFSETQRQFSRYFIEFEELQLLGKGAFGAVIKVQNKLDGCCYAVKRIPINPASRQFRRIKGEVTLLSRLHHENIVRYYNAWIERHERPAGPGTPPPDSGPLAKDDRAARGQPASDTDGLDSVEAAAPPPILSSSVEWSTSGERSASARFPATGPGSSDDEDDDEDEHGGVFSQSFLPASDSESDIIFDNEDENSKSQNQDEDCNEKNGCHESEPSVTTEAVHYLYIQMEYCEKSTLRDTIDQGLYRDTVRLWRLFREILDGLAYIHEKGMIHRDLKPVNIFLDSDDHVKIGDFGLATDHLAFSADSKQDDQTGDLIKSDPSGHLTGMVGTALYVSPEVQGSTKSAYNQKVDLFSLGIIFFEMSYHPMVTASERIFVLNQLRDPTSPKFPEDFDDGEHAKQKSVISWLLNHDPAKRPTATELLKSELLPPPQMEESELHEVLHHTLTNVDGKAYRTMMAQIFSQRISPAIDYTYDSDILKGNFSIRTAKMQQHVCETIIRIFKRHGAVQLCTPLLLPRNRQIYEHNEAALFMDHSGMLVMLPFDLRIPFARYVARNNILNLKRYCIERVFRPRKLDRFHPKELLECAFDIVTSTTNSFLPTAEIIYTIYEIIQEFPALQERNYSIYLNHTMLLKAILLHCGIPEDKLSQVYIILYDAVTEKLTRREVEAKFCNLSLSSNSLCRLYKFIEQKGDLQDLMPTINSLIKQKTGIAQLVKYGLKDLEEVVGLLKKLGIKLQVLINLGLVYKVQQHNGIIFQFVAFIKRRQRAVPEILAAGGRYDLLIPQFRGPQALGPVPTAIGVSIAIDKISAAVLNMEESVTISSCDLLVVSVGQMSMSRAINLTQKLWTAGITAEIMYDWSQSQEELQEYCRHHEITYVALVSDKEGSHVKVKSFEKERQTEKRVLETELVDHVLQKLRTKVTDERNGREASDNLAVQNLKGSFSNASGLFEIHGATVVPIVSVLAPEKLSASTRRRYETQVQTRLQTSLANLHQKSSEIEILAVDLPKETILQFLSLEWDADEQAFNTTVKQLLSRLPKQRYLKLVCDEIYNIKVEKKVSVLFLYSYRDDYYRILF
Outline: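 First, U2OS cells are plated and left overnight at 37 °C. Next, compounds (from 40 μM final, 4-fold steps) and 10 μM borrelidin are added for 1 h, cells lysed, and phospho-Ser51 eIF2α detected by AlphaScreen bead sandwich. Inhibition is computed versus borrelidin-only wells.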

Sequence of GCN2 kinase (Q9P2K8 whole entry): as above

Ki (GCN2 kinase) | IC50 [1] | Structure (SMILES)
10 to 1000 nM | 500 to 5000 nM | OC[C@@H]1CN(c2cc(-c3cnc4ccc(C(F)F)nn34)ncn2)C[C@@H](C(F)(F)F)O1 [II-297, ((2S,6S)-4-(6-(6-(Difluoromethyl)imidazo[1,2-b]pyridazin-3-yl)pyrimidin-4-yl)-6-(trifluoromethyl)morpholin-2-yl)methanol]
10 to 1000 nM | 500 to 5000 nM | OC[C@H]1CN(c2cc(-c3cnc4ccc(C(F)F)nn34)ncn2)C[C@@H](C(F)(F)F)O1 [II-298, ((2R,6S)-4-(6-(6-(Difluoromethyl)imidazo[1,2-b]pyridazin-3-yl)pyrimidin-4-yl)-6-(trifluoromethyl)morpholin-2-yl)methanol]
10 to 1000 nM | 500 to 5000 nM | N#CCC1CCCN(c2cc(-c3cnc4ccc(C(F)F)nn34)ncn2)C1 (centres unmarked) [II-299, 2-(1-(6-(6-(Difluoromethyl)imidazo[1,2-b]pyridazin-3-yl)pyrimidin-4-yl)piperidin-3-yl)acetonitrile]
< 10 nM | < 500 nM | CS(=O)(=O)NC[C@H]1CCCN(c2cc(-c3cnc4ccc(C(F)F)nn34)ncn2)C1 [II-300, (S)—N-((1-(6-(6-(Difluoromethyl)imidazo[1,2-b]pyridazin-3-yl)pyrimidin-4-yl)piperidin-3-yl)methyl)methanesulfonamide]
10 to 1000 nM | 500 to 5000 nM | FC(F)c1ccc2ncc(-c3cc(N4CCOC5CC54)ncn3)n2n1 (centres unmarked) [II-301, 5-(6-(6-(Difluoromethyl)imidazo[1,2-b]pyridazin-3-yl)pyrimidin-4-yl)-2-oxa-5-azabicyclo[4.1.0]heptane]
10 to 1000 nM | 500 to 5000 nM | CS(=O)(=O)NC[C@H]1CN(c2cc(-c3cnc4ccc(C(F)F)nn34)ncn2)C[C@@H](C(F)(F)F)O1 [II-306, N-(((2R,6S)-4-(6-(6-(Difluoromethyl)imidazo[1,2-b]pyridazin-3-yl)pyrimidin-4-yl)-6-(trifluoromethyl)morpholin-2-yl)methyl)methanesulfonamide]
10 to 1000 nM | 500 to 5000 nM | CS(=O)(=O)NC[C@@H]1CN(c2cc(-c3cnc4ccc(C(F)F)nn34)ncn2)C[C@@H](C(F)(F)F)O1 [II-307, N-(((2S,6S)-4-(6-(6-(Difluoromethyl)imidazo[1,2-b]pyridazin-3-yl)pyrimidin-4-yl)-6-(trifluoromethyl)morpholin-2-yl)methyl)methanesulfonamide]
10 to 1000 nM | > 5000 nM | FC(F)c1ccc2ncc(-c3cc(N4CCCCC4)ncn3)n2n1 [II-308, 6-(Difluoromethyl)-3-(6-(piperidin-1-yl)pyrimidin-4-yl)imidazo[1,2-b]pyridazine]
> 1000 nM | > 5000 nM | O=C1COC2(CN1)COCCN(c1cc(-c3cnc4ccc(C(F)F)nn34)ncn1)C2 (centres unmarked) [II-309, 11-(6-(6-(Difluoromethyl)imidazo[1,2-b]pyridazin-3-yl)pyrimidin-4-yl)-1,8-dioxa-4,11-diazaspiro[5.6]dodecan-3-one]
10 to 1000 nM | 500 to 5000 nM | CN(CC1CCCN(c2cc(-c3cnc4ccc(C(F)F)nn34)ncn2)C1)S(C)(=O)=O (centres unmarked) [II-310, N-((1-(6-(6-(Difluoromethyl)imidazo[1,2-b]pyridazin-3-yl)pyrimidin-4-yl)piperidin-3-yl)methyl)-N-methylmethanesulfonamide]
< 10 nM | < 500 nM | CN(CC1CCCN(c2cc(-c3cnc4ccc(C(F)F)nn34)ncn2)C1)S(N)(=O)=O (centres unmarked) [II-311, 1-((1-(6-(6-(Difluoromethyl)imidazo[1,2-b]pyridazin-3-yl)pyrimidin-4-yl)piperidin-3-yl)methyl)-1-methylsulfuric diamide]
< 10 nM | < 500 nM | CC1C(CNS(C)(=O)=O)NCCN1c1cc(-c2cnc3ccc(C(F)F)nn23)ncn1 (centres unmarked) [II-313, N-[[4-[6-[6-(Difluoromethyl)imidazo[1,2-b]pyridazin-3-yl]pyrimidin-4-yl]-3-methyl-piperazin-2-yl]methyl]methanesulfonamide]
10 to 1000 nM | > 5000 nM | OC[C@@H]1C[C@@H](C(F)(F)F)CN(c2cc(-c3cnc4ccc(C(F)F)nn34)ncn2)C1 [II-314, ((3R,5R)-1-(6-(6-(Difluoromethyl)imidazo[1,2-b]pyridazin-3-yl)pyrimidin-4-yl)-5-(trifluoromethyl)piperidin-3-yl)methanol]
10 to 1000 nM | > 5000 nM | OC[C@H]1C[C@@H](C(F)(F)F)CN(c2cc(-c3cnc4ccc(C(F)F)nn34)ncn2)C1 [II-315, ((3S,5R)-1-(6-(6-(Difluoromethyl)imidazo[1,2-b]pyridazin-3-yl)pyrimidin-4-yl)-5-(trifluoromethyl)piperidin-3-yl)methanol]
< 10 nM | < 500 nM | C[C@H]1CN(c2cc(-c3cnc4ccc(C(F)F)nn34)ncn2)C[C@@H](CNS(N)(=O)=O)C1(F)F [II-316, 1-(((3S,5S)-1-(6-(6-(Difluoromethyl)imidazo[1,2-b]pyridazin-3-yl)pyrimidin-4-yl)-4,4-difluoro-5-methylpiperidin-3-yl)methyl)sulfuric diamide]
10 to 1000 nM | 500 to 5000 nM | NS(=O)(=O)CCC1CCCN(c2cc(-c3cnc4ccc(C(F)F)nn34)ncn2)C1 (centres unmarked) [II-317, 2-(1-(6-(6-(Difluoromethyl)imidazo[12-b]pyridazin-3-yl)pyrimidin-4-yl)piperidin-3-yl)ethane-1-sulfonamide]
10 to 1000 nM | 500 to 5000 nM | NS(=O)(=O)CCC1CN(c2cc(-c3cnc4ccc(C(F)F)nn34)ncn2)CCO1 (centres unmarked) [II-318, 2-(4-(6-(6-(Difluoromethyl)imidazo[1,2-b]pyridazin-3-yl)pyrimidin-4-yl)morpholin-2-yl)ethane-1-sulfonamide]
10 to 1000 nM | > 5000 nM | CS(=O)(=O)N1CC2OCCN(c3cc(-c4cnc5ccc(C(F)F)nn45)ncn3)C2C1 (centres unmarked) [II-319, 4-(6-(6-(Difluoromethyl)imidazo[1,2-b]pyridazin-3-yl)pyrimidin-4-yl)-6-(methylsulfonyl)octahydropyrrolo[3,4-b][1,4]oxazine]
10 to 1000 nM | > 5000 nM | CS(=O)(=O)N1CC2CCCN(c3cc(-c4cnc5ccc(C(F)F)nn45)ncn3)C2C1 (centres unmarked) [II-320, 6-(Difluoromethyl)-3-(6-(6-(methylsulfonyl)octahydro-1H-pyrrolo[3,4-b]pyridin-1-yl)pyrimidin-4-yl)imidazo[1,2-b]pyridazine]
10 to 1000 nM | > 5000 nM | C[C@H]1CN(c2cc(-c3cnc4ccc(C(C)(F)F)nn34)ncn2)C[C@@H](CNS(C)(=O)=O)C1(F)F [II-321, N-(((3S,5S)-1-(6-(6-(1,1-Difluoroethyl)imidazo[1,2-b]pyridazin-3-yl)pyrimidin-4-yl)-4,4-difluoro-5-methylpiperidin-3-yl)methyl)methanesulfonamide]
10 to 1000 nM | > 5000 nM | CC(F)(F)c1ccc2ncc(-c3cc(N4CCO[C@H](CNS(C)(=O)=O)C4)ncn3)n2n1 [II-322, (S)—N-((4-(6-(6-(1,1-Difluoroethyl)imidazo[1,2-b]pyridazin-3-yl)pyrimidin-4-yl)morpholin-2-yl)methyl)methanesulfonamide]
10 to 1000 nM | 500 to 5000 nM | C[C@H]1CCCCN1c1cc(-c2cnc3ccc(C(F)F)nn23)ncn1 [II-323, (S)-6-(Difluoromethyl)-3-(6-(2-methylpiperidin-1-yl)pyrimidin-4-yl)imidazo[1,2-b]pyridazine]
